Reference: patent US20240352066A1, “ANTIMICROBIAL COMPOUNDS AND THE METHOD OF USE” (priority 2021, published 2024)
Converted amounts (≈) assume the structure as drawn. Each block holds one molecule with its values, some of them ahead of it. Where a SMILES comes first, the peptide text is derived from it. [ ]: non-standard residue; d: D form. N(tridecyl)Gly = CCCCCCCCCCCCCNCC(=O)O; Gly(N-2-aminoethyl) = NCCNCC(=O)O; Gly(N-cHex) = O=C(O)CNC1CCCCC1; Nleu = CC(C)CNCC(=O)O; Nlys = NCCCCNCC(=O)O

Key:
[1] = Percent acetonitrile at elution during RP-HPLC purification (hydrophobicity); assay type: physicochemical; settings: percent acetonitrile at the time of elution from HPLC
From the text: All RMG8-8 derivatives were synthesized via the solid-phase submonomer synthesis method on polystyrene Rink Amide resin (Zuckermann et al. Journal of the American Chemical Society 114, 10646-10647 (1992)). The amines used during synthesis and the peptoid shorthand notations for each monomer are provided in Table 7 and Table 8, respectively. Compounds were purified to greater than 95% by RP-HPLC and compound identity was confirmed by ESI-TOF MS (Table 9). The calculated distribution coefficient at pH 7.4 (c Log D7.4) (via Chemaxon. MarvinSketch 19.17.0, 2019) and the percent acetonitrile at the time of elution during HPLC purification were recorded and serve as measures of hydrophobicity (Table 10). Higher values for c Log D7.4 and percent acetonitrile are indicators of increased compound hydrophobicity. With antimicrobial peptoids, hydrophobicity is directly related to both antimicrobial activity and cytotoxicity (Andreev et al. Biochimica et biophysica acta. Biomembranes 1860 6, 1414-1423 (2018); Bolt et al. Med chem comm 8, 886-896 (2017); Frederiksen et al. Molecules 24, (2019)). The ideal balance of these parameters generally must be determined experimentally. To measure antifungal activity, the minimum inhibitory concentration (MIC), defined as the concentration of compound required to inhibit 90% of fungal growth, was determined against C. neoformans using the broth microdilution method. Mammalian cytotoxicity was evaluated through a cell metabolic activity assay with HepG2 liver carcinoma cells, and select, potentially promising compounds were tested for unwanted hemolytic activity against human red blood cells.
Peptoids were purified via Reversed-Phase High-Performance Liquid Chromatography (RP-HPLC) using a Varian Prepstar SD-1. A gradient of 0-100% water to acetonitrile containing 0.05% TFA made up the mobile phase, and a Supelco Ascentis C18 column (5 μm; 25 cm×21.2 mm; Sigma-Aldrich 581347-U) was used as the stationary phase. Peaks in the chromatogram above 0.1 AU were collected and analyzed via mass spectrometry. The peak product with the desired peptoid was dried down in vacuo and lyophilized overnight. Peptoids were then reconstituted in sterile […] deionized water to create compound stocks of 20 mg/mL.

[2] = tested on: HepG2 hepatocellular carcinoma cells; settings: RMG8-8, previously published results (Green et al. 2021); cited from earlier work
C. albicans = assay type: cell-based, Candida albicans; settings: 24 h
Procedure: 2-fold serial dilutions of 100× peptoid solutions were prepared in water and 2 μL of peptoid were added to each well in triplicate. […] MIC was defined as the lowest concentration of compound preventing fungal growth. This assay was repeated 3 times on separate days with each compound.

[3] = tested on: Staphylococcus aureus ATCC 29213; assay type: cell-based; settings: ATCC 29213, 24 h
Procedure: (§1) The minimum inhibitory concentration (MIC) of peptoids against the ESKAPE bacteria (Enterococcus faecium ATCC 6569; Staphylococcus aureus ATCC 29213; Klebsiella pneumoniae ATCC 13883; Acinetobacter 55aumannii ATCC 19606; Pseudomonas aeruginosa ATCC 25619; Enterococcus faecalis ATCC 29212; and Escherichia coli ATCC 25922) was determined following CLSI guidelines (CLSI. Methods for Dilution Antimicrobial Susceptibility Tests for Bacteria That Grow Aerobically, 11th Edition. (Clinical and Laboratory Standards Institute, 2018). The MIC against Mycobacterium smegmatis was also determined following CLSI guidelines (Woods et al., Susceptibility Testing of Mycobacteria, Nocardiae, and Other Aerobic Actinomycetes, 2nd edition. (2011)). Colonies picked from streaked tryptic soy agar plates were added to tryptic soy broth (TSB) to achieve a turbidity of OD600=0.08-0.15. Inoculant was diluted 1:200 into cation adjust Mueller Hinton Broth (CAVHB) and 90 μL was plated into each well of a 96 well black-wall plate. 2-fold serial dilutions of 10× peptoid (10 μL) were added to each well in triplicate and incubated at 37° C. for 24 hours for the ESKAPE bacteria and 72 hours for M. smegmatis. Tetracycline (20 μg/mL) was used as a positive control with DI water was used as a vehicle control. Following incubation for the ESKAPE bacteria, PrestoBlue (10 μL) was added to each well and incubated at 37° C. for one hour before measuring fluorescence on a SpectraMax M5 plate reader (Ex. 555 nm; Em. 585 nm). Following incubation for M. smegmatis, wells were scored following CLSI guidelines to determine MIC. This assay was repeated three times on separate days.

[4] = tested on: Escherichia coli ATCC 25922; assay type: cell-based; settings: ATCC 25922, 24 h
Procedure: as §1

Mycobacterium smegmatis = assay type: cell-based; settings: 72 h
Procedure: as §1

[5] = tested on: Enterococcus faecium ATCC 6569; assay type: cell-based; settings: ATCC 6569, 24 h
Procedure: as §1

[6] = tested on: Pseudomonas aeruginosa ATCC 25619; assay type: cell-based; settings: ATCC 25619, 24 h
Procedure: as §1

[7] = tested on: Enterococcus faecalis ATCC 29212; assay type: cell-based; settings: ATCC 29212, 24 h
Procedure: as §1

[8] = tested on: Klebsiella pneumoniae ATCC 13883; assay type: cell-based; settings: ATCC 13883, 24 h
Procedure: as §1

in vitro = assay type: cell-based, mouse; settings: mouse, 3T3 fibroblasts
Procedure: (§2) Hepatocellular carcinoma (HepG2), mouse fibroblast (3T3), human lung (HPL1A), and human keratinocyte (HaCat) cells were cultured in Dulbecco modified eagle media (DMEM) containing 10% fetal bovine serum (FBS) and 1% penicillin, streptomycin, and glutamine (PSG) at 37° C. and 5% CO2. Cells were collected and adjusted to […] to 4×10^5 cells/mL in phenol-red free DMEM and plated (100 μL) 96 well plates. 2-fold serial dilutions of 10× peptoid (11.1 μL) were added to each well in triplicate. Water (vehicle) was used as a negative control. Plates were incubated at 37° C. in 5% CO2 for 72 hours. Thiazolyl blue tetrazolium bromide (MTT) was added to each well (5 mg/mL; 20 μL) and incubated for 3 hours. Media was removed, DMSO (100 μL) was added, and plates were incubated at 37° C. for 10 minutes. Plates were read on a SpectraMax M5 plate reader (Abs. 570 nm). The concentration of compound resulting in a 50% reduction in growth compared to control (toxicity dose 50%; TD50) was determined using GraFit. This procedure was repeated three times on separate days.

3T3 fibroblasts = assay: in vitro; assay type: cell-based, mouse
Procedure: as §2

% ACN [1]: 68.1%
Compound: CCCCCCCCCCCCCNCC(=O)N(CC(=O)N(CCCCN)CC(=O)N(CCN)CC(=O)N(CC(N)=O)CC(C)C)CC(C)C [Compound 9] (H-[N(tridecyl)Gly][Nleu][Nlys][Gly(N-2-aminoethyl)][Nleu]-NH2)

Compound: CCCCCCCCCCCCCNCC(=O)N(CC(=O)N(CCCCN)CC(=O)N(CCN)CC(=O)N(CC(N)=O)C1CCCCC1)C1CCCCC1 [RMG8-8, Ntri-Ncha-Nlys-Nae-Ncha] (H-[N(tridecyl)Gly][Gly(N-cHex)][Nlys][Gly(N-2-aminoethyl)][Gly(N-cHex)]-NH2)
HepG2 TD50 [2]: 189 ± 43 µg/mL
MIC C. albicans (C. albicans): 25 µg/mL (≈ 32.8 µM)
MIC S. aureus [3]: 6.25 µg/mL (≈ 8.19 µM)
MIC E. coli [4]: 12.5 µg/mL (≈ 16.4 µM)
MIC M. smegmatis (Mycobacterium smegmatis): 3.13 to 6.25 µg/mL
MIC E. faecium [5]: 6.25 µg/mL (≈ 8.19 µM)
MIC P. aeruginosa [6]: 100 µg/mL (≈ 131 µM)
MIC E. faecalis [7]: 6.25 µg/mL (≈ 8.19 µM)
MIC K. pneumoniae [8]: 100 µg/mL (≈ 131 µM)
CC50 at 72 h (in vitro): 59 ± 15 µg/mL (≈ 77.3 µM)
TD50 3T3 (3T3 fibroblasts): 59 µg/mL
